Source: patent US20070020196A1, “Inhalant formulation containing sulfoalkyl ether cyclodextrin and corticosteroid prepared from a unit dose suspension” (priority 2003, published 2007)

Assay: Stability of budesonide R- and S-isomers with and without SBE7-β-CD (Example 13)
Type: physicochemical
Description: The inventors have also discovered that SAE-CD is capable of stabilizing the isomers of budesonide to different extents. A study to determine if SBE7-β-CD stabilized budesonide solutions and if it preferentially stabilized one isomer was conducted according to Example 13. FIG. 11 is a semi-log plot of the % of initial concentration at each time point for the samples stored at 60 ° C. Loss of budesonide was first order at each temperature.
Solutions of budesonide with and without SBE7-β-CD were prepared at two different pHs (4 and 6) and stored at 2 different temperatures (60° C. and 80° C.). Citrate buffers (50 mM) at each pH value were prepared by mixing differing portions of 50 mM citric acid and 50 mM sodium citrate (tribasic, dihydrate) solutions. To achieve a concentration of budesonide in the buffers without SBE7-β-CD sufficient for accurate measurement, the budesonide was dissolved first in 100% ethyl alcohol. An aliquot of the ethanol/budesonide solution was then added drop-wise with stirring to each buffer solution. The theoretical budesonide concentration was 100 μg/mL with a final ethanolic content of 5% in each buffer. All solution preps and procedures involving budesonide were done in a darkened room under red light. After shaking solutions for 24 hours, both buffer solutions were filtered through Millipore Millex-GV 0.22 μm syringe filters to remove any solid that had precipitated (no significant amounts observed) from the solutions. The final budesonide concentration was about 50 μg/mL. Both the pH 4 and 6 solutions were split in two, and solid SBE7-β-CD was added to one of the portions to create solutions with and without 1% w/v SBE7-β-CD at each pH. Each solution was aliquoted into individual amber vials. They were then placed in ovens at 60° C. and 80° C. Sample vials were removed from the ovens and analyzed by HPLC at 0, 96, 164, and 288 hours. The HPLC assay conditions are summarized below.

With/without CAPTISOL ratio of rate constants (pH 4, 60° C.)	With/without CAPTISOL ratio of rate constants (pH 4, 80° C.)	Pseudo 1st Order Rate constant (pH 4 no CAPTISOL, 60° C.)	Pseudo 1st Order Rate constant (pH 4 no CAPTISOL, 80° C.)	Pseudo 1st Order Rate constant (pH 4 w/ CAPTISOL, 60° C.)	Pseudo 1st Order Rate constant (pH 4 w/ CAPTISOL, 80° C.)	With/without CAPTISOL ratio of rate constants (pH 6, 60° C.)	With/without CAPTISOL ratio of rate constants (pH 6, 80° C.)	Pseudo 1st Order Rate constant (pH 6 no CAPTISOL, 60° C.)	Pseudo 1st Order Rate constant (pH 6 no CAPTISOL, 80° C.)	Pseudo 1st Order Rate constant (pH 6 w/ CAPTISOL, 60° C.)	Pseudo 1st Order Rate constant (pH 6 w/ CAPTISOL, 80° C.)	Compound
0.323	0.491	0.0037 h⁻¹	0.00131 h⁻¹	0.00012 h⁻¹	0.000644 h⁻¹	0.193	0.384	0.001872 h⁻¹	0.00661 h⁻¹	0.000361 h⁻¹	0.00254 h⁻¹	CCC[C@H]1O[C@@H]2C[C@H]3[C@@H]4CCC5=CC(=O)C=C[C@]5(C)[C@H]4[C@@H](O)C[C@]3(C)[C@]2(C(=O)CO)O1 (single isomer, unassigned) [S-isomer]
0.547	0.607	0.00109 h⁻¹	0.003704 h⁻¹	0.000597 h⁻¹	0.00225 h⁻¹	0.385	0.529	0.00432 h⁻¹	0.0138 h⁻¹	0.001661 h⁻¹	0.00732 h⁻¹	CCC[C@@H]1O[C@@H]2C[C@H]3[C@@H]4CCC5=CC(=O)C=C[C@]5(C)[C@H]4[C@@H](O)C[C@]3(C)[C@]2(C(=O)CO)O1 (single isomer, unassigned) [R-isomer]
